In general, IC50 refers to the midpoint of a concentration-inhibition curve. As a reminder, the Ki is the equilibrium dissociation constant of an inhibitor or competing ligand from its target. Low readings indicate tighter binding, high ones weaker binding.

In one assay the target is T1, sOGT (Homo sapiens (Human), UniProt O15294). The assay can be described thus: Secondary assay: transfer of UDP-14C-GlcNAc to casein kinase II derived peptide by sOGT. It counts as biochemical. Particulars: 500 μM peptide, 6.25 μM UDP-14C-GlcNAc, ~20-40 nM sOGT; read-out: IC50 (OGT inhibition).
T1 sequence (O15294 382-1046, species assumed): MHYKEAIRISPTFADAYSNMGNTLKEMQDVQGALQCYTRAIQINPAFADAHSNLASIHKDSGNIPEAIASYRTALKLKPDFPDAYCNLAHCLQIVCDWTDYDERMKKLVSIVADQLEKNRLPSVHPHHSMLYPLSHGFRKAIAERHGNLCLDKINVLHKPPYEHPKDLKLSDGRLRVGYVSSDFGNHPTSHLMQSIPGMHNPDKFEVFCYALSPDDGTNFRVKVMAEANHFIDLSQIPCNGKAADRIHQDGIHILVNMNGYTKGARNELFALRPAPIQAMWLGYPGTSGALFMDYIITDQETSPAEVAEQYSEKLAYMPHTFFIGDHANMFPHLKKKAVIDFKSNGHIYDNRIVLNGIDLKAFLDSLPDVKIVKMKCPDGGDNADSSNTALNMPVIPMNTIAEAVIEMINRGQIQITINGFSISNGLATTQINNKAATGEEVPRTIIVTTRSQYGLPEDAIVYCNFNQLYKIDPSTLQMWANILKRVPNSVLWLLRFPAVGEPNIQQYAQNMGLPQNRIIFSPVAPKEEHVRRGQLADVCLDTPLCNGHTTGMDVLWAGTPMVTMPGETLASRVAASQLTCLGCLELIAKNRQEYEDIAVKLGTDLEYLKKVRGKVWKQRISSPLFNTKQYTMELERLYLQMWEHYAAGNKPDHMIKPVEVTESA
Description: Hits were examined in a secondary assay involving the transfer of UDP-^14C-GlcNAc to a peptide derived from casein kinase II, which contains a known OGT glycosylation site, as described by Hart and co-workers (see manuscript, reference 4). Three lysines and a tyrosine were added to the N-terminus of this peptide substrate ([sequence]) to allow capture on phosphocellulose discs and UV detection, respectively. […] Reactions were spotted on Whatman P81 phosphocellulose discs, washed three times for five minutes in 1% phosphoric acid, and counted by liquid scintillation counting. IC50s curves were determined from the counts of the reactions and IC50s were determined.
`O=C(C(NS(=O)(=O)c1ccc2[nH]c(=O)ccc2c1)c1ccccc1)N(Cc1ccco1)Cc1cccs1` (stereo not shown) [Example 3, N-(furan-2-ylmethyl)-2-(2-oxo-1,2-dihydroquinoline-6-sulfonamido)-2-phenyl-N-(thiophen-2-ylmethyl)acetamide]: the IC50 turned out to be 0.39 µM.

For the next assay, the system named is HEK293 cells. The assay can be described thus: Glucosamine-induced cellular-wide O-GlcNAcylation changes in HEK cells (western blot, CTD110.6 antibody). The format is cell-based. The conditions noted are these: 12.5 μM compound, 4 mM glucosamine, 16 hours. How it is done:
The efficacy of the inhibitor in cell culture was evaluated by adding compound N08 to HEK293 cells.HEK293 cells were grown in 6 well plates using low glucose (5 mM) DMEM with 10% FBS as the media. […] After mixing the compounds the media was removed from the cultured cells and the inhibitor-media solutions was added to the cells. After cells were incubated with the inhibitors for 16 hours (overnight), the cells were rinsed with PBS, removed using cell scrapers, transferred to 1.5 ml microcentrifuge tubes, pelleted by centrifugation, and lysed by resuspending in 100 μl RIPA buffer with protease and phosphatase inhibitor cocktails (SIGMA). After incubating on ice the debris were pelleted down, and the supernatant was collected as whole cell lysate. Total protein concentration of each sample was determined by Bradford Assay in order to normalize levels of protein loaded onto a gel. Then 2×SDS-PAGE sample buffer was added to each sample, they were boiled for 10 minutes, and loaded onto a denaturing polyacrylamide gel (4-20% gradient), transferred to nitrocellulose membrane, blocked with 1% BSA for 1 hour, and probed with the monoclonal O-GlcNAc antibody, CTD110.6 (Covance), incubated at a 1:5000 dilution in 1% BSA overnight at 4° C., followed by addition of anti-mouse HRP secondary antibody. Pierce SuperSignal West Pico Chemiluminescent substrate was added to perform the western blot.
For orientation: In western blotting, separated proteins are transferred to a membrane and probed.
As for `O=C(C(NS(=O)(=O)c1ccc2[nH]c(=O)ccc2c1)c1ccccc1)N(Cc1ccco1)Cc1cccs1` (stereo not shown) [Example 3, N-(furan-2-ylmethyl)-2-(2-oxo-1,2-dihydroquinoline-6-sulfonamido)-2-phenyl-N-(thiophen-2-ylmethyl)acetamide], the “Effect on glucosamine-induced cellular-wide O-GlcNAcylation” value is listed as “reduces glucosamine-induced cellular-wide O-GlcNAcylation changes to normal levels”.

A further assay concerns the target T1, sOGT. The assay can be described thus: Fluorescence polarization screen of quinolinesulfonamide library for OGT inhibition (displacement of fluorescein-linked UDP-GlcNAc analog). It counts as binding. Particulars: rough Ki values from fluorescence polarization results and Kd of the probe; 1-2 μM sOGT, 50 nM probe. How it is done: Compound libraries of the 4 concentrations in duplicated were then transferred to the assay plates using a 100 nL pin array, resulting in a final compound concentration of 25 μg/mL or ˜70 μM at the highest of the four concentrations, assuming an average compound MW of 350. Using a Perkin Elmer Envision® microplate reader, the sample was excited at 480 nm in the vertical plane, and simultaneous emission intensity (535 nm) of the vertical and horizontal polarization planes was measured. The polarization was calculated using the following equation: eq4: mP=1000*(V−G*H)/(V+G*H) where: mP=millipolarization units, V=intensity of vertically polarized emission (RFU), H=intensity of horizontally polarized emission (RFU), and G=gain.
(In fluorescence polarisation assays a small probe gives low polarisation when free and higher when bound to something large.)
Consider `CC(c1cccs1)N(Cc1ccco1)C(=O)C(NS(=O)(=O)c1ccc2c(c1)CCC(=O)N2)c1ccccc1` (stereo not shown), for which the Ki was determined as 1.6 µM.

Consider `O=C1CCc2cc(S(=O)(=O)NC(C(=O)N3CCN(C4CCCCC4)CC3)c3ccccc3)ccc2N1` (stereo not shown), for which the inhibition constant (Ki) was 20 µM. In the case of `CCN(CC)C(=O)C(NS(=O)(=O)c1ccc2c(c1)CCC(=O)N2)c1ccccc1` (stereo not shown), the Ki was determined as 21 µM.

As for `Cc1ccc(N2CCN(C(=O)C(NS(=O)(=O)c3ccc4c(c3)CCC(=O)N4)c3ccccc3)CC2C)cc1` (stereo not shown), the Ki stood at 3.2 µM. This Ki lies about 6.6-fold lower than the previous one. Still for that read-out and setting: the figure for `CC(C)N(Cc1ccccc1)C(=O)C(NS(=O)(=O)c1ccc2c(c1)CCC(=O)N2)c1ccccc1` (stereo not shown) [drawing 86] is 5.7 µM. For `O=C1CCc2cc(S(=O)(=O)NC(C(=O)N3CCN(c4ccccn4)CC3)c3ccccc3)ccc2N1` (stereo not shown), affinity was put at a Ki of 4.2 µM. This Ki and that of the compound before are within 1.5-fold of each other.

`COc1ccc(NS(=O)(=O)c2ccc3[nH]c(=O)ccc3c2)cc1OC` returned a Ki of 7.2 µM.

In turn, `COc1cc2c(cc1OC)C(C)N(S(=O)(=O)c1ccc3[nH]c(=O)ccc3c1)CC2` (stereo not shown) displayed a Ki of 50 µM. The same measure, in the same setting: then `O=C1CCc2cc(S(=O)(=O)NC(C(=O)N3CCC(Cc4ccccc4)CC3)c3ccccc3)ccc2N1` (stereo not shown), with 2 µM; and `O=C1CCc2cc(S(=O)(=O)NC(C(=O)NCc3ccccc3)c3ccccc3)ccc2N1` (stereo not shown), with 125 µM. For `CCOc1ccccc1NS(=O)(=O)c1ccc2[nH]c(=O)ccc2c1`, the Ki is 4.7 µM.

With `Cc1cccc(N(C)C(=O)C(NS(=O)(=O)c2ccc3c(c2)CCC(=O)N3)c2ccccc2)c1` (stereo not shown), the Ki came to 7.4 µM. The compound `O=C1CCc2cc(S(=O)(=O)NC(C(=O)NCc3ccc(Cl)cc3)c3ccccc3)ccc2N1` (stereo not shown) had a Ki of 6.6 µM. Same read-out and setting: then `Cc1ccc(NC(=O)C(NS(=O)(=O)c2ccc3c(c2)CCC(=O)N3)c2ccccc2)c(Br)c1` (stereo not shown), with 52 µM.

In turn, `CCc1cccc(C)c1NC(=O)C(NS(=O)(=O)c1ccc2c(c1)CCC(=O)N2)c1ccccc1` (stereo not shown) displayed a Ki of 97 µM. On the same count and under the same terms, then `O=C(C(NS(=O)(=O)c1ccc2[nH]c(=O)ccc2c1)c1ccccc1)N(Cc1ccco1)Cc1cccs1` (stereo not shown) [drawing 100], with 0.4 µM; and `CC(C)N(Cc1ccccc1)C(=O)C(NS(=O)(=O)c1ccc2c(c1)CCC(=O)N2)c1ccccc1` (stereo not shown) [drawing 98], with 7 µM. In turn, `Cc1ccc(N2CCN(C(=O)C(NS(=O)(=O)c3ccc4c(c3)CCC(=O)N4)c3ccccc3)CC2)cc1` (stereo not shown) displayed a Ki of 9 µM. Same read-out and setting: the figure for `O=C1CCc2cc(S(=O)(=O)NC(C(=O)N3CCN(C(=O)c4ccco4)CC3)c3ccccc3)ccc2N1` (stereo not shown) is 11 µM.

The compound `CN(Cc1ccco1)C(=O)C(Cc1ccccc1)NS(=O)(=O)c1ccc2c(c1)CCC(=O)N2` (stereo not shown) had a Ki of 13 µM. In the case of `Cc1cccc(C)c1NC(=O)C(NS(=O)(=O)c1ccc2c(c1)CCC(=O)N2)c1ccccc1` (stereo not shown), the Ki came to 37 µM. This Ki lies about 2.8-fold higher than the previous one. In turn, `O=C1CCc2cc(S(=O)(=O)NC(C(=O)N(Cc3ccco3)Cc3cccs3)c3ccccc3)ccc2N1` (stereo not shown) returned a Ki of 4 µM. Same read-out and setting: then `Cc1cc(C)c(NC(=O)C(NS(=O)(=O)c2ccc3c(c2)CCC(=O)N3)c2ccccc2)c(C)c1` (stereo not shown), with 5.6 µM; and `CN(CC(=O)Nc1nc2ccc(Cl)cc2s1)S(=O)(=O)c1ccc2[nH]c(=O)ccc2c1`, with 60 µM; and `O=C(O)CC(NS(=O)(=O)c1ccc2c(c1)CCC(=O)N2)c1cccc(Cl)c1` (stereo not shown), with 15 µM. Compound `COc1cccc(N2CCN(C(=O)C(NS(=O)(=O)c3ccc4c(c3)CCC(=O)N4)c3ccccc3)CC2)c1` (stereo not shown) showed a Ki of 6.3 µM.

For the origin of these results see patent US8957075B2, “O-GlcNAc transferase inhibitors and uses thereof” (priority 2009, dated 2015).
